From ChEMBL document CHEMBL1201862, “PubChem BioAssay data set” (2004)
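A five-concentration, 48-hour dose response in 96-well plates underlies each endpoint, interpolated linearly between surrounding concentrations. GI50 is the concentration that inhibits growth by half.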 Calls of active or inactive are those of the source. Cut-off read from the data, not from the text of the source: active = GI50 up to about 1.1 µM and inactive = higher.

Columns and labels:
Assay in all cases: NCI anticancer screen, dose series, 48 h
A549 = system: A549
EKVX = system: EKVX
HL-60 = system: HL-60
HOP-62 = system: HOP-62
HOP-92 = system: HOP-92
HT-29 = system: HT-29
Hs-578T = system: Hs-578T
IGROV-1 = system: IGROV-1
MCF7 = system: MCF7
MDA-N = system: MDA-N
NCI-H23 = system: NCI-H23
OVCAR-8 = system: OVCAR-8
PC-3 = system: PC-3
RPMI-8226 = system: RPMI-8226
SF-539 = system: SF-539
SK-MEL-2 = system: SK-MEL-2
SK-MEL-5 = system: SK-MEL-5
SR = system: SR
U-251 = system: U-251
Malme-3M = system: Malme-3M

Measured: GI50

COc1cc(NCc2ccc3oc(=O)c(-c4ccccc4)nc3c2)cc(OC)c1OC
inactive: A549 > 10 µM | EKVX > 10 µM | HL-60 > 10 µM | HOP-62 > 10 µM | HOP-92 > 10 µM | HT-29 > 10 µM | Hs-578T > 10 µM | IGROV-1 > 10 µM | MCF7 > 10 µM | MDA-N > 10 µM | NCI-H23 > 10 µM | OVCAR-8 > 10 µM | PC-3 > 10 µM | RPMI-8226 > 10 µM | SF-539 > 10 µM | SK-MEL-2 > 10 µM | SK-MEL-5 > 10 µM | SR > 10 µM | U-251 > 10 µM

O=C(CCCCCCCCC(=O)N1C(=O)CC(=O)N(c2ccc(Cl)cc2)C1=S)N1C(=O)CC(=O)N(c2ccc(Cl)cc2)C1=S
inactive: A549 34.2 µM | EKVX 47.4 µM | HOP-62 80.9 µM | HOP-92 > 100 µM | HT-29 73.5 µM | Hs-578T > 100 µM | MCF7 37.8 µM | MDA-N 38.6 µM | Malme-3M > 100 µM | NCI-H23 58.5 µM | OVCAR-8 63.5 µM | PC-3 57.1 µM | RPMI-8226 30.6 µM | SF-539 > 100 µM | SK-MEL-2 49.1 µM | SK-MEL-5 29.9 µM | SR 8.93 µM | U-251 > 100 µM

Nc1n[nH]c2c(C(=O)Nc3ccc(Cl)cc3)c(N)n(N)c(=O)c12
inactive: A549 > 100 µM | EKVX > 100 µM | HL-60 > 100 µM | HT-29 > 100 µM | Hs-578T > 100 µM | IGROV-1 > 100 µM | MCF7 > 100 µM | MDA-N > 100 µM | Malme-3M > 100 µM | NCI-H23 > 100 µM | OVCAR-8 > 100 µM | PC-3 > 100 µM | RPMI-8226 > 100 µM | SF-539 > 100 µM | SK-MEL-2 > 100 µM | SK-MEL-5 > 100 µM | SR > 100 µM | U-251 > 100 µM

CN1CCN(c2nc3c(c(=O)n(C)c(=O)n3C)n2C)CC1
inactive: A549 > 100 µM | EKVX > 100 µM | HL-60 > 100 µM | HOP-62 > 100 µM | HOP-92 > 100 µM | HT-29 > 100 µM | Hs-578T > 100 µM | IGROV-1 > 100 µM | MCF7 > 100 µM | MDA-N > 100 µM | Malme-3M > 100 µM | NCI-H23 > 100 µM | OVCAR-8 > 100 µM | PC-3 > 100 µM | RPMI-8226 > 100 µM | SK-MEL-2 > 100 µM | SK-MEL-5 > 100 µM | SR > 100 µM | U-251 > 100 µM

CN=C(n1ccnc1)n1ccnc1
inactive: A549 > 100 µM | EKVX > 100 µM | HL-60 > 100 µM | HT-29 > 100 µM | Hs-578T > 100 µM | IGROV-1 > 100 µM | MCF7 > 100 µM | MDA-N > 100 µM | Malme-3M > 100 µM | NCI-H23 > 100 µM | OVCAR-8 > 100 µM | PC-3 > 100 µM | RPMI-8226 > 100 µM | SF-539 > 100 µM | SK-MEL-2 > 100 µM | SK-MEL-5 > 100 µM | SR > 100 µM | U-251 > 100 µM

Cc1cc2[n-][n+]3ncc(-c4ccccc4)n3c2cc1[N+](=O)[O-]
inactive: A549 > 100 µM | EKVX > 100 µM | HL-60 > 100 µM | HOP-62 > 100 µM | HOP-92 > 100 µM | Hs-578T > 100 µM | IGROV-1 > 100 µM | MCF7 > 100 µM | MDA-N > 10 µM | PC-3 > 100 µM | RPMI-8226 > 100 µM | SF-539 > 100 µM | SK-MEL-2 > 100 µM | SK-MEL-5 > 100 µM | SR > 100 µM | U-251 > 100 µM

BC(=O)NC(CC(C)C)C(=O)NC1c2ccsc2C(=O)C1O.CN(C)C (stereo unspecified)
inactive: A549 > 100 µM | EKVX > 100 µM | HL-60 > 100 µM | HOP-62 > 100 µM | HT-29 > 100 µM | Hs-578T > 100 µM | IGROV-1 > 100 µM | MCF7 > 100 µM | MDA-N > 100 µM | Malme-3M > 100 µM | NCI-H23 > 100 µM | OVCAR-8 > 100 µM | PC-3 > 100 µM | RPMI-8226 > 100 µM | SF-539 > 100 µM | SK-MEL-2 > 100 µM | SK-MEL-5 > 100 µM | SR > 100 µM | U-251 > 100 µM

c1csc(-c2cc(-c3cccs3)c(-c3cccs3)s2)c1
inactive: A549 > 100 µM | EKVX 55.8 µM | HOP-62 > 100 µM | HOP-92 91.8 µM | HT-29 39.3 µM | Hs-578T > 100 µM | IGROV-1 > 100 µM | MCF7 18.5 µM | MDA-N 32 µM | Malme-3M 62.2 µM | NCI-H23 96.4 µM | OVCAR-8 > 100 µM | PC-3 > 100 µM | SF-539 > 100 µM | SK-MEL-5 33.2 µM | SR 51.1 µM | U-251 75.5 µM

CCCn1cnc2c(SCC(=O)O)nc(N)nc21
inactive: A549 > 100 µM | EKVX > 100 µM | HL-60 > 100 µM | HOP-62 > 100 µM | HOP-92 > 100 µM | HT-29 > 100 µM | Hs-578T > 100 µM | IGROV-1 > 100 µM | MCF7 > 100 µM | MDA-N > 100 µM | Malme-3M > 100 µM | NCI-H23 > 100 µM | OVCAR-8 > 100 µM | PC-3 > 100 µM | RPMI-8226 > 100 µM | SK-MEL-2 > 100 µM | SK-MEL-5 > 100 µM | SR > 100 µM | U-251 > 100 µM

O=C(c1c(F)c(F)c(F)c(F)c1F)n1c(=S)n(C(=O)c2c(F)c(F)c(F)c(F)c2F)c2ccccc21
inactive: HL-60 12.9 µM | HOP-62 > 100 µM | HOP-92 > 100 µM | HT-29 > 100 µM | Hs-578T > 100 µM | IGROV-1 > 100 µM | MCF7 69.8 µM | MDA-N > 100 µM | OVCAR-8 > 100 µM | PC-3 64 µM | RPMI-8226 44.4 µM | SF-539 > 100 µM | SK-MEL-2 > 100 µM | SK-MEL-5 > 100 µM | SR 39.9 µM | U-251 > 100 µM

O=C(CN1CCN(c2ccccc2)CC1)c1ccc2[nH]c(=O)oc2c1
inactive: EKVX > 100 µM | HL-60 > 100 µM | HOP-62 > 100 µM | HT-29 > 100 µM | Hs-578T 70 µM | IGROV-1 > 100 µM | MCF7 > 100 µM | MDA-N > 100 µM | Malme-3M > 100 µM | NCI-H23 > 100 µM | OVCAR-8 > 100 µM | PC-3 > 100 µM | RPMI-8226 > 100 µM | SF-539 36.5 µM | SK-MEL-2 > 100 µM | SR > 100 µM | U-251 35.6 µM
